According to patent US12497359B2, “Acrylamide derivatives” (NRG Therapeutics Ltd, priority 2020, dated 2025):
Values after ≈ are worked out from the molar mass of the structure shown.

Key:
[1] = test system: mPTP; assay: mPTP activity assay in isolated rat brain mitochondria; type: biochemical; settings: for mPTP Rat brain pIC50: isolated rat brain mitochondria
Description: MPTP activity was measured in brain mitochondria freshly isolated from female Sprague Dawley (250 to 300 gram) rats. Anaesthetised rats were perfused in-situ with ˜40 ml cold Dulbecco's Phosphate Buffered Saline (DPBS), then brains dissected and transferred into 30 ml Isolation Buffer (225 mM mannitol, 75 mM sucrose, 1 mM EGTA, adjusted to pH 7.4 with 1 M NaOH). The brain was minced using tweezers and a scalpel into ˜5 mm pieces then transferred into a 50 ml Potterton Dounce homogenization tube on ice containing 10 ml ice-cold isolation buffer (as above with addition of Complete Protease inhibitor; 1 tablet per 50 ml buffer). Homogenisation was carried out using a teflon pestle at 1800 rpm. The slurry was centrifuged at 2000 g for 10 min at 4° C., then the supernatant centrifuged at 12,000 g for 9 min. The pellet was resuspended with a dounce homogeniser in isolation buffer as above but with the addition of 0.02% digitonin, centrifuged at 12,000 g for 11 min and finally resuspended in 5 ml modified isolation buffer (as above but with EGTA reduced to 0.1 mM).
Test compounds were prepared in 384 well polypropylene assay plates as described above for the liver mitochondria assay. A stock mitochondria/Fluo5N assay solution was prepared in 5.6 ml assay buffer (120 mM mannitol, 40 mM MOPS, 5 mM KH2PO4, 60 mM KCl, 10 mM pyruvate, 2 mM malate, 2 mM MgCl2, 20 μM ADP, 1.26 μM oligomycin A, adjusted to pH 7.4) supplemented with Fluo5N pentapotassium salt (2 μM) and 1 ml mitochondria suspension, then transferred (15 μl) into the assay plate containing test compounds and incubated for 10 min at RT. Assay plates were then transferred to a FLIPR Tetra plate reader (Molecular Devices). Dye fluorescence was then measured every 3 sec for a total of 10 min. After 12 sec, a 2.5 μl bolus of Ca2+(75 μM) was added from a source plate containing 675 μM CaCl2 in FLIPR assay buffer. IC50 values for test compounds were calculated using the fluorescence value collected at the 10 min timepoint with % inhibition calculated using the DMSO control and cyclosporin A values at […].

[2] = FaSSIF solubility; type: physicochemical; settings: kinetic from dmso stock, Fasted state simulated intestinal fluid, 2 hr at 25° C.
Description: Test compounds were prepared as 10 mM stocks in DMSO and 15 μl samples transferred in duplicate into 1.5 mL glass flat bottom vials (BioTech Solutions). Fasted state simulated intestinal fluid (FaSSIF) or PBS (pH 7.4) was added to each vial to final volume of 500 μl. One PTFE encapsulated stir stick (V&P Scientific) was placed in each vial before sealing with PTFE/SIL plugs (BioTech Solutions). Vials were shaken at 1100 rpm for 2 hr at 25° C. Samples were then filtered through MultiScreen Solvinert filter plates (Millipore) via vacuum filtration. Aliquots of filtrate (5 μl) plus 5 μl DMSO were diluted in 490 μl 50% acetonitrile in water containing internal standard. The filtrate was analysed and quantified against a standard of known concentration using LC-MS/MS. Solubility values of the test compound and control compound were calculated as follows: [Sample]=(Area ratiosample*INJ VOL STD*DFsample*[STD])/(Area ratio STD*INJ VOLsample).

[3] = test system: mPTP; assay: mPTP activity assay in isolated rat liver mitochondria (Ca2+ retention, Fluo5N, FLIPR); type: biochemical; settings: for mPTP Rat liver pIC50*: isolated rat liver mitochondria, average value from multiple experiments (n ≥ 2)
How it was run: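 Freshly isolated female Sprague Dawley rat liver mitochondria in pH 7.4 buffer with 10 mM succinate, 1 μM rotenone and 2 μM Fluo5N, preincubated 10 min at RT with compound (30 μM to 1 nM). CaCl2 bolus (75 μM) added; IC50 from 10 min fluorescence, normalised to DMSO and 5 μM cyclosporin A.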

[4] = comparison among Example compounds, in words

SMILES	activity in the rat brain mitochondria assay [1, 4]	mPTP Rat brain pIC50 [1]	solubility at 2 h [2]	activity in the rat liver mitochondria assay [3, 4]	mPTP Rat liver pIC50* [3]
C[C@H]1Cc2ccccc2[C@@H]1NC(=O)/C=C/c1ccc2cn[nH]c2c1 (single isomer, unassigned) [Example 14c]	highest activity	8.4	8 µM (≈ 2.54 µg/mL)	highest activity	7.9
C[C@@H]1COc2ccccc2[C@@H]1NC(=O)/C=C/c1ccc2cn[nH]c2c1 (single isomer, unassigned) [Example 15d, (E)-3-(1H-indazol-6-yl)-N-(3-methylchroman-4-yl)acrylamide]	–	7.6	7 µM (≈ 2.33 µg/mL)	–	7.6
O=C(/C=C/c1ccc2cn[nH]c2c1)N[C@@H]1CCc2ccccc21 [Example 3, (R,E)-N-(2,3-dihydro-1H-inden-1-yl)-3-(1H-indazol-6-yl)acrylamide]	–	7.3	7 µM (≈ 2.12 µg/mL)	–	7.2
COCc1ccccc1NC(=O)/C=C/c1ccc2cn[nH]c2c1 [Example 29, (E)-3-(1H-indazol-6-yl)-N-(2-(methoxymethyl)phenyl)acrylamide]	–	6.8	73 µM (≈ 22.4 µg/mL)	–	7.1
